Laboratory results reported in US8901314B2, “Substituted pyrazoles as N-type calcium channel blockers” (Janssen Pharmaceutica NV, priority 2012, dated 2014).

Legend:
[1] = biological target: α1B (Cav2.2), β3 and α2δ subunits of the N-type calcium channel (stable HEK cell line) (Rattus norvegicus, UniProt Q02294); assay: Calcium-dye indicator assay (FDSS, KCl depolarization); format: cell-based; conditions: calcium mobilization response to 50 mM KCl; six-point concentration-response
Protocol: A stable cell line (HEK parent) co-expressing the α1B (Cav2.2), β3 and α2δ subunits of the N-type calcium channel subunits was used. These cells were routinely grown as monolayers in low glucose-containing Dulbecco's Modified Eagle Medium supplemented with 10% FBS, 2 mM L-glutamine, 100 I.U./mL penicillin, 100 μg/mL streptomycin, 400 μg/mL G418 and 200 μg/mL Zeocin (split ratio=1:5). Cells were maintained in 5% CO2 at 37° C. Compounds of Formula (I) were prepared as 10 mM stocks in DMSO from neat compound, if available. Otherwise, the 5 or 10 mM DMSO stock solutions provided in-house were used.
Calcium mobilization responses to KCl depolarization were evaluated by measuring the intensity of calcium-mediated fluorescent signal in the presence of BD Calcium Assay Dye (BD Biosciences, Franklin Lakes, N.J., U.S.A.), utilizing a Functional Drug Screening System (FDSS) by Hamamatsu Corporation (Bridgewater, N.J., U.S.A.).
Twenty-four hours prior to assay, cells were seeded in clear-base poly-D-lysine coated 384-well plates (BD Biosciences) at a density of 5,000 cells per well in culture medium and grown overnight in 5% CO2 at 37° C. On the day of assay growth media were removed and cells were loaded with BD calcium assay dye (BD Biosciences) for 35 min at 37° C. under 5% CO2 and then for 25 min at room temperature. Utilizing the FDSS, cells were exposed to representative compounds of Formula (I) at varying concentrations and intracellular calcium was measured for 5 min prior to the addition of 50 mM KCl for an additional 3 min of measurement.
Maximal fluorescence intensity (FI) achieved upon addition of 50 mM KCl was exported from the FDSS software and further analyzed using GraphPad Prism 4 (Graph Pad Software Inc., CA, U.S.A.). Data were normalized to the maximum average counts from quadruplicate wells for each condition in the presence of 50 mM KCl and to the minimum average counts in the presence of buffer. Theoretical curves were generated using nonlinear regression curve-fitting analysis of either sigmoidal concentration-response or sigmoidal concentration-response (variable slope), and the IC50 values with the best-fit dose curve determined by GraphPad Prism were reported.

[2] = tested on: Cav2.2 (N-type calcium channel; α1B, α2δ and β3 subunits stably expressed in HEK293 cells); assay: Automated electrophysiology assay (QPatch-HT patch clamp); format: cell-based
Protocol: The Cav2.2 (α1B) subunit (GenBank accession no. AAO53230; supplied by Lipscombe's laboratory at Brown University) was subcloned into pcDNA3.1, whereas the α2δ (M86621) and β3 (M88751) subunits were subcloned into pBudCE4.1 vectors. Stable cell lines expressing all three subunits were generated according to the following procedure: 1) HEK293 cells were transfected with α2δ−1/β3 expression constructs resulting in a stable cell line expressing α2δ−1 and β3 subunits that were selected under 200 μg/mL of Zeocin; 2) a stable cell line expressing α2δ−1/β3 subunits in high quantity as evidenced in its Western blots was isolated from the colony and purified; 3) this cell line was further transfected with Cav2.2 expression constructs, from which cells were subsequently selected under 400 μg/mL G418 and 200 μg/mL Zeocin; 4) these cells were clonally isolated, expanded and screened by Western blot analysis for expressing all three subunits
Cultures of cells stably expressing Cav2.2 were maintained at 37° C. in low glucose-containing Dulbecco's Modified Eagle medium (low glucose) under a 5% CO2 atmosphere. The medium was supplemented with 10% fetal bovine serum, 2 mM L-glutamine, 100 IU/mL penicillin, […] streptomycin, 400 μg/mL G418 and 200 μg/mL Zeocin.
High-throughput automated patch clamp system experiments were carried out using instruments (QPatch-HT) available from Sophion Biosciences, Inc. North Brunswick, N.J. Cells were grown in T175 flasks to 50%-90% confluence were enzymatically treated with Deatchin (Genlantis, San Diego, Calif., U.S.A.), centrifuged, rinsed and resuspended in 293 SFM II media (Life Technologies, Grand Island, N.Y., U.S.A.) supplemented with 25 mM HEPES (Sigma-Aldrich, St. Louis, Mo., U.S.A.) to a concentration of 2−3×10^6 cells/mL. Cells were added to automated cell preparation station on the QPatch-HT (Sophion Biosciences, North Brunswick, N.J., U.S.A.) and following a 10- to 30-min recovery period with gentle stirring, the assay protocol was initiated. During the automated cell preparation, cells were collected, centrifuged and resuspended in an extracellular (EC) solution containing 132 mM NaCl, 1.8 mM CaCl2, 5.4 mM KCl, 0.8 mM MgCl2, 10 mM glucose, and 10 mM HEPES (pH=7.4), adjusted with sucrose to 315 m0sm. The QPlate was primed with an intracellular solution containing 135 CsCl, 10 mM EGTA, 4 MgATP, 0.3 NaGTP, and 20 mM HEPES (pH=7.2), adjusted to approximately 290 m0sm with deionized water and the EC solution. Cells were added to the prepared QPlate wells by robotic pipettes of the QPatch-HT.
For cells determined to be in stable whole-cell patch clamp, the EC solution was replaced with a barium (Ba)/triethylammonium (TEA) solution containing 140 mM TEA-Cl, 10 mM BaCl2, 0.8 mM MgCl2, 10 mM glucose, and 10 mM HEPES (pH=7.4). High (40 mM) BaCl2 concentrations were made with adjustments of TEA-Cl (90 mM) to maintain the osmolarity. From a resting potential of −80 mV, a train of depolarizing pulses (15 pulses at 5 Hz, +20 mV) was delivered to the cell once every 30 sec for eight trains (4 min total), and the resulting currents were measured during a control period (no compound). This protocol was repeated for each subsequent addition of control buffer with or without compound (three periods total, each with four trains). The current generated in the 1st and 15th pulses of the last train of each period in the presence of each drug concentration was normalized to the current generated during the control period at the respective pulses (representing low- and high frequency stimulation, respectively). Data from both the second and third drug application period were analyzed for each cell. A final addition of Ba/TEA solution containing 60-100 uM CdCl2 was made to block all N-type current and “zero” the currents for each cell. A buffer/compound additions were made using a “spitting” feature of the QPatch-HT, which added three repretitions of 5 μL solution at the beginning of each recording period.

[3] = 0.1 μM, high frequency stimulation (15th pulse of 5 Hz train)
[4] = 0.1 μM, low frequency stimulation (1st pulse of train)

| SMILES | IC50 [1] | also measured |
| --- | --- | --- |
| COc1ccccc1-n1nc([C@@H]2CCO[C@@H](C(C)C)C2)cc1-c1ccc(Cl)cc1 (relative stereo) [Compound 69, 5-(4-Chlorophenyl)-1-(2-methoxyphenyl)-3-[(trans)-2-(1-methylethyl)tetrahydro-2H-pyran-4-yl]-1H-pyrazole] | 20 nM | – |
| CC(C)Oc1ccccc1-n1nc(C2CC(C)(C)OC(C)(C)C2)cc1-c1ccc(Cl)cc1 [Compound 7, 5-(4-Chlorophenyl)-1-[2-(1-methylethoxy)phenyl]-3-(2,2,6,6-tetramethyltetrahydro-2H-pyran-4-yl)-1H-pyrazole] | 1.2 nM | – |
| COc1ccccc1-n1nc(C2CC(C)(C)OC(C)(C)C2)cc1-c1ccc(N(C)C)cc1 [Compound 11, 4-[1-(2-Methoxyphenyl)-3-(2,2,6,6-tetramethyltetrahydro-2H-pyran-4-yl)-1H-pyrazol-5-yl]-N,N-dimethylaniline] | 2.4 nM | – |
| COc1ccccc1-n1nc(C2CC(C)(C)OC(C)(C)C2)cc1-c1ccc2c(ccn2C)c1 [Compound 21, 5-[1-(2-Methoxyphenyl)-3-(2,2,6,6-tetramethyltetrahydro-2H-pyran-4-yl)-1H-pyrazol-5-yl]-1-methyl-1H-indole] | 5.7 nM | – |
| COc1ccccc1-n1nc(C2CC(C)(C)OC(C)(C)C2)cc1-c1ccc(OC(C)C)cc1 [Compound 24, 1-(2-Methoxyphenyl)-5-[4-(1-methylethoxy)phenyl]-3-(2,2,6,6-tetramethyltetrahydro-2H-pyran-4-yl)-1H-pyrazole] | 11 nM | – |
| COc1ccccc1-n1nc(C2CC(C)(C)OC(C)(C)C2)cc1-c1ccnc(Cl)c1 [Compound 25, 2-Chloro-4-[1-(2-methoxyphenyl)-3-(2,2,6,6-tetramethyltetrahydro-2H-pyran-4-yl)-1H-pyrazol-5-yl]pyridine] | – | QPatch % Inhibition, High Freq [2, 3]: 29%; QPatch % Inhibition, Low Freq [2, 4]: 14% |
| COc1ccccc1-n1nc(C2CC(C)(C)OC(C)(C)C2)cc1-c1ccc2c(c1)OCCO2 [Compound 27, 5-(2,3-Dihydro-1,4-benzodioxin-6-yl)-1-(2-methoxyphenyl)-3-(2,2,6,6-tetramethyltetrahydro-2H-pyran-4-yl)-1H-pyrazole] | 1.5 nM | – |
| COc1ccc(-c2cc(C3CC(C)(C)OC(C)(C)C3)nn2-c2ccccc2OC)cc1OC [Compound 29, 5-(3,4-Dimethoxyphenyl)-1-(2-methoxyphenyl)-3-(2,2,6,6-tetramethyltetrahydro-2H-pyran-4-yl)-1H-pyrazole] | 58 nM | – |
| COc1ccccc1-n1nc(C2CC(C)(C)OC(C)(C)C2)cc1-c1ccncc1 [Compound 32, 4-[1-(2-Methoxyphenyl)-3-(2,2,6,6-tetramethyltetrahydro-2H-pyran-4-yl)-1H-pyrazol-5-yl]pyridine] | 140 nM | – |
| COc1ccccc1-n1nc(C2CC(C)(C)OC(C)(C)C2)cc1-c1ccnc(C)c1 [Compound 33, 4-[1-(2-Methoxyphenyl)-3-(2,2,6,6-tetramethyltetrahydro-2H-pyran-4-yl)-1H-pyrazol-5-yl]-2-methylpyridine] | 82 nM | – |
| COc1cncc(-c2cc(C3CC(C)(C)OC(C)(C)C3)nn2-c2ccccc2OC)c1 [Compound 34, 3-Methoxy-5-[1-(2-methoxyphenyl)-3-(2,2,6,6-tetramethyltetrahydro-2H-pyran-4-yl)-1H-pyrazol-5-yl]-pyridine] | 120 nM | – |
| COc1ccccc1-n1nc(C2CC(C)(C)OC(C)(C)C2)cc1-c1ccccc1NC(C)=O [Compound 36, N-{2-[1-(2-Methoxyphenyl)-3-(2,2,6,6-tetramethyltetrahydro-2H-pyran-4-yl)-1H-pyrazol-5-yl]-phenyl}-acetamide] | 143 nM | – |
| COc1ccccc1-n1nc(C2CC(C)(C)OC(C)(C)C2)cc1C1=CCCC1 [Compound 37, 5-Cyclopent-1-en-1-yl-1-(2-methoxyphenyl)-3-(2,2,6,6-tetramethyltetrahydro-2H-pyran-4-yl)-1H-pyrazole] | 34 nM | – |
| COc1ccccc1-n1nc(C2CC(C)(C)OC(C)(C)C2)cc1-c1ncc(C)s1 [Compound 38, 2-[1-(2-Methoxyphenyl)-3-(2,2,6,6-tetramethyltetrahydro-2H-pyran-4-yl)-1H-pyrazol-5-yl]-5-methyl-1,3-thiazole] | 110 nM | – |
| COc1ccccc1-n1nc(C2CC(C)(C)OC(C)(C)C2)cc1-c1ccc([S+](C)[O-])cc1 (stereo not shown) [Compound 47, 5-(4-Methanesulfinyl-phenyl)-1-(2-methoxy-phenyl)-3-(2,2,6,6-tetramethyl-tetrahydro-pyran-4-yl)-1H-pyrazole] | – | QPatch % Inhibition, High Freq [2, 3]: 28%; QPatch % Inhibition, Low Freq [2, 4]: 25% |
| CC1(C)CC(c2cc(-c3ccc(Cl)cc3)n(-c3ccccn3)n2)CC(C)(C)O1 [Compound 50, 2-[5-(4-Chloro-phenyl)-3-(2,2,6,6-tetramethyl-tetrahydro-pyran-4-yl)-pyrazol-1-yl]-pyridine] | – | QPatch % Inhibition, High Freq ([2]; 0.1 µM): 1%; QPatch % Inhibition, Low Freq ([2]; 0.1 µM): −37% |
| CC1(C)CC(c2cc(-c3ccc(Cl)cc3)n(-c3ccncc3)n2)CC(C)(C)O1 [Compound 51, 4-[5-(4-Chlorophenyl)-3-(2,2,6,6-tetramethyltetrahydro-2H-pyran-4-yl)-1H-pyrazol-1-yl]-pyridine] | – | QPatch % Inhibition, High Freq ([2]; 0.1 µM): 22%; QPatch % Inhibition, Low Freq ([2]; 0.1 µM): −17% |
| COc1ccccc1-n1nc(C2CC(C)(C)SC(C)(C)C2)cc1-c1ccc(Cl)cc1 [Compound 58, 5-(4-Chloro-phenyl)-1-(2-methoxy-phenyl)-3-(2,2,6,6-tetramethyl-tetrahydro-thiopyran-4-yl)-1H-pyrazole] | – | QPatch % Inhibition, High Freq [2, 3]: 26%; QPatch % Inhibition, Low Freq [2, 4]: 19% |
| COc1ccccc1-n1nc(C2CC(C)(C)S(=O)(=O)C(C)(C)C2)cc1-c1ccc(Cl)cc1 [Compound 59, 5-(4-Chlorophenyl)-1-(2-methoxyphenyl)-3-(2,2,6,6-tetramethyl-1,1-dioxidotetrahydro-2H-thiopyran-4-yl)-1H-pyrazole] | – | QPatch % Inhibition, High Freq [2, 3]: 54%; QPatch % Inhibition, Low Freq [2, 4]: 54% |
